Test results taken from patent US20150353982A1, “MICRO-EVOLUTION OF MICROBES” (priority 2012, published 2015).

Experiments:
[1] = tested on: Arthrospira platensis (CCMP1295); assay: Toxicology assay over 72 hours (BS EN ISO 10253:2006), reduction in specific growth rate; format: cell-based
Method: Toxicology assays and EC50 calculations for copper were performed on Arthrospira platensis (CCMP1295). Assessments were performed under aseptic conditions in 2 stages through an initial range-finding assay (data not shown) using CuSO4 solutions to detect the region of the EC50, followed by a final toxicology assay over 72 hours following British Standard BS EN ISO 10253:2006 [15] with ECso determination where inhibition is measured as a reduction in specific growth rate, relative to control cultures grown under identical conditions. Visual analysis was also performed to assess the effects of metal toxicity on morphology. Statistical analysis was performed using GraphPad Prism 5 Non-linear transform log(agonist) vs. response—variable response function.
FIGS. 4A and 4B show the results of the toxicity assay using A. platensis. EC50 of Cu^2+ ions for A. platensis was calculated at 0.2976 (in the 95% CI range of 0.17-0.5208 mg/L with an R squared value of 0.8654).

A. platensis = assay: Micro-evolution exposure (60 days) with fluctuation analysis; format: cell-based, Arthrospira platensis
Excerpt: The result from the fluctuation analysis after the selected period can explain the presence of resistant cells in two ways. Each result is interpreted as the independent consequence of two different phenomena of adaptation. In the first case, if resistant cells arose during the exposure to the selective agent (that is, by physiological adaptation), the variance in the number of cells per culture would be low because every cell is likely to have the same chance of developing resistance (set 1A; FIG. 3). Consequently, inter-culture (tube-to-tube) variation would be consistent with the Poisson model (that is, the variance of these replicate samples would be equal to the mean). By contrast, if resistant cells arose before the exposure to the selective agent (that is, genetic adaptation by rare spontaneous mutation occurring during the time in which the cultures grew from N0 to Nt), a high variation in the number of resistant cells per culture would be found (set 1B; FIG. 3). The tube-to-tube variation would not be consistent with the Poisson model (that is, variance>mean). Fluctuation analysis can likewise show the possibility of no adaptation if no resistant cells are observed after the incubation period in any of the experimental cultures. Since set 2 is the control of the experiment, variation is due only to random sampling and variation from tube to tube would be consistent with the Poisson model. […] If a similar variance: mean ratio between set 1 and set 2 is found, it confirms that resistant cells arose during the exposure to the selecting agent (that is, a post-selective mechanism).
FIG. 2 illustrates a typical outline of the micro-evolution process. The experiment was performed based on the method from Gonzalez et al., (2012). Following FIG. 2, the culture was cloned through the isolation of a single alga or cyanobacterium, to avoid the inclusion of previous spontaneous mutations, followed by growth. Cloning was performed through microdilution in microwell plates, where the culture was diluted to the culture density of 1 microbe (micro-organism, MO) per 200 μl, providing a single cell in each well (although if microalgae/cyanobacteria can grow on solid medium, isolation on medium agar can also be performed). Propagation of the cloned culture was performed from 200 μl in increasing volume flasks with foam stoppers in a constant temperature room 18° C.+/−1° C., average light intensity 2800 lux with 8:16 dark:light cycle.
10e2 MOs were then subcultured into 10 ml 40 vials (set 1), and cultures propagated further in vials and propagation flask (for set 2) (FIG. 3). Before exposure, controls ‘set 2’ were prepared through subculturing from flask into 20 vials. During the exposure stage, CuSO4 solution was added to the 60 vials of each concentration set to make-up the final concentrations of 0.3, 0.6, 1, 2 and 4 mg/Cu^2+ ions. Vials were stored under propagation conditions described above for a period of 60 days, with daily agitation, ensuring resistant cells could generate enough progeny to be detected. After the incubation period, fluctuation analysis was performed to identify those cultures which resistance arose through microevolution.

For `O=S(=O)([O-])[O-].[Cu+2]` [Cu^2+ ions, CuSO4], the “morphological changes (microscope)” value ([1]; 1 mg/L Cu2+, after 24 hour) was “fragmentation of the trichomes”, the EC50 ([1]; 72 hours, CuSO4 solutions, 95% CI 0.17-0.5208 mg/L, R squared 0.8654) was 0.2976 µg/mL and the Outcome (A. platensis; 0.3 mg/L Cu^2+ ion concentration) was “RSM”. The Outcome (A. platensis; 0.6 mg/L Cu^2+ ion concentration) was “RSM”, the Outcome (A. platensis; 1 mg/L Cu^2+ ion concentration) was “No adaptation” and the Outcome (A. platensis; 2 mg/L Cu^2+ ion concentration) was “No adaptation”. For the same compound, the Outcome (A. platensis; 4 mg/L Cu^2+ ion concentration) was “No adaptation”.
